Measurements from US9556179B2 (BRISTOL-MYERS SQUIBB COMPANY, priority 2012, dated 2017).

Key:
[1] = target: CK1δ (Homo sapiens (Human), UniProt P48730); experiment: CK1δ kinase assay (Caliper LABCHIP electrophoretic separation of fluoresceinated peptide substrate and product); type: biochemical; conditions: 200 pM enzyme, 50 μM ATP, 22 hours at room temperature
In short: (§1)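 Kinase reactions ran 22 h at room temperature, were stopped with EDTA, and phosphorylated product was separated electrophoretically from unphosphorylated fluoresceinated peptide. Compounds were tested at eleven concentrations from 10 mM DMSO stocks. IC50 by non-linear regression.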

[2] = target: CK1ε (Homo sapiens (Human), UniProt P49674); experiment: CK1ε kinase assay (Caliper LABCHIP electrophoretic separation of fluoresceinated peptide substrate and product); type: biochemical; conditions: 200 pM enzyme, 50 μM ATP, 22 hours at room temperature
CK1ε, sequence (P49674 whole entry): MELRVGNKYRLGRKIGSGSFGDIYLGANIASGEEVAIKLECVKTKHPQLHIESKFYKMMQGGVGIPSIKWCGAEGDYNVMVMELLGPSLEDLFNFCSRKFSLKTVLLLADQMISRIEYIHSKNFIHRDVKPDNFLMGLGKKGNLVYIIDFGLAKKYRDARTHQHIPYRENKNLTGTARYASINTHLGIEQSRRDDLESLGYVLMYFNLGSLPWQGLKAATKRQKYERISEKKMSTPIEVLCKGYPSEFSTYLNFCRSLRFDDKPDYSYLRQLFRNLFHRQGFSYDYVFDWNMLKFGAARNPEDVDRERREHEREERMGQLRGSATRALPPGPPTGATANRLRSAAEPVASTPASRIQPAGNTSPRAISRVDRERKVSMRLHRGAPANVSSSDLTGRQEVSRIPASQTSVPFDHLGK
In short: as §1

CK1δ, sequence (P48730 whole entry): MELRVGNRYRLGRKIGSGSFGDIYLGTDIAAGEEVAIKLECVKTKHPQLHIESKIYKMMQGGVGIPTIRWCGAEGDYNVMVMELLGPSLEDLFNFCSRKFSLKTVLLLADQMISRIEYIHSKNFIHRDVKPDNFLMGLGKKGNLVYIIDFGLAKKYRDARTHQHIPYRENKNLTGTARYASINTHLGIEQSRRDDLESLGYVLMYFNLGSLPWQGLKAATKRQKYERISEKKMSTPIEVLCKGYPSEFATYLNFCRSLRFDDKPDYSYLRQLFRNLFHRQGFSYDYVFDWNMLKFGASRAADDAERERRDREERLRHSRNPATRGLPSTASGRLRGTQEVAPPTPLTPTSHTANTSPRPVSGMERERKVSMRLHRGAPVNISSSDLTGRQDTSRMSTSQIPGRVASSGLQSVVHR

`O=C(Nc1cn2nc(-c3c(-c4ccc(F)cc4)ncn3CCN3CCOCC3)ccc2n1)c1ccnc2ccccc12` [Compound 166, N-(6-(4-(4-fluorophenyl)-1-(2-morpholinoethyl)-1H-imidazol-5-yl)imidazo[1,2-b]pyridazin-2-yl)quinoline-4-carboxamide] was tested. Which IC50 [1] did it give?
The IC50 was 0.192 nM.

And the IC50 [2]?
The IC50 was 1.3 nM.

With `O=C(Nc1cn2nc(-c3c(-c4ccc(F)cc4)ncn3CCOCC(F)(F)F)ccc2n1)c1ccnc(F)c1` [Compound 252, 2-fluoro-N-(6-(4-(4-fluorophenyl)-1-(2-(2,2,2-trifluoroethoxy)ethyl)-1H-imidazol-5-yl)imidazo[1,2-b]pyridazin-2-yl)isonicotinamide] as the compound, how does the IC50 [1] read?
Its IC50 is 0.347 nM.

And the IC50 [2]?
The IC50 was 2.51 nM.

Which IC50 [1] does the source give for `O=C(Nc1cn2nc(-c3c(-c4ccc(F)cc4)nc4ccccn34)ccc2n1)C1CCN(c2ccncc2)CC1` [Compound 217, N-(6-(2-(4-fluorophenyl)imidazo[1,2-a]pyridin-3-yl)imidazo[1,2-b]pyridazin-2-yl)-1-(pyridin-4-yl)piperidine-4-carboxamide] here?
Its IC50 is 0.833 nM.

And the IC50 [2]?
Its IC50 is 12.2 nM.

Which IC50 [1] does the source give for `Cc1cc(-c2nc(C)n(CC(F)F)c2-c2ccc3nc(NC(=O)c4ccnc(F)c4)cn3n2)ccc1F` [Compound 297] here?
Its IC50 is 0.354 nM.

And the IC50 [2]?
The IC50 was 2.26 nM.

For `O=C(Nc1cn2nc(-c3c(-c4ccc(F)cc4)nc4ccccn34)ccc2n1)c1ccncc1` [Compound 186, N-(6-(2-(4-fluorophenyl)imidazo[1,2-a]pyridin-3-yl)imidazo[1,2-b]pyridazin-2-yl)isonicotinamide], which IC50 [1] is on record?
The IC50 was 10.3 nM.

What about the IC50 [2] of the same compound?
Its IC50 is 11.4 nM.

`NC(=O)CN1CCC(n2cnc(-c3ccc(F)cc3)c2-c2ccc3nc(NC(=O)c4cc(F)nc(F)c4)cn3n2)CC1` [Compound 89, N-(6-(1-(1-(2-amino-2-oxoethyl)piperidin-4-yl)-4-(4-fluorophenyl)-1H-imidazol-5-yl)imidazo[1,2-b]pyridazin-2-yl)-2,6-difluoroisonicotinamide] was tested. Which IC50 [1] did it give?
The IC50 was 0.146 nM.

And the IC50 [2]?
The IC50 was 1.09 nM.

Which IC50 [1] does the source give for `Cc1nc(-c2ccc(F)cc2)c(-c2ccc3nc(NC(=O)c4ccns4)cn3n2)n1C` [Compound 335, N-(6-(4-(4-fluorophenyl)-1,2-dimethyl-1H-imidazol-5-yl)imidazo[1,2-b]pyridazin-2-yl)-5-isothiazolecarboxamide] here?
Its IC50 is 0.476 nM.

What about the IC50 [2] of the same compound?
Its IC50 is 2.57 nM.

Which results are given for `CCCn1cnc(-c2ccc(F)cc2)c1-c1ccc2nc(NC(=O)c3ccnc(F)c3)cn2n1` [Compound 229, 2-Fluoro-N-(6-(4-(4-fluorophenyl)-1-propyl-1H-imidazol-5-yl)imidazo[1,2-b]pyridazin-2-yl)isonicotinamide]?
IC50 [1]: 0.474 nM; IC50 [2]: 2.57 nM

Which results are given for `CC(=O)N1CCCC1C(=O)Nc1cn2nc(-c3c(-c4ccc(F)cc4)nc(C)n3C)ccc2n1` [Compound 353, 1-acetyl-N-(6-(4-(4-fluoro-phenyl)-1,2-dimethyl-1H-imidazol-5-yl)imidazo[1,2-b]pyridazin-2-yl)-L-pro-linamide]?
IC50 [1]: 4.94 nM; IC50 [2]: 74.2 nM

For `CC(C)(C)Cn1cnc(-c2ccc(F)cc2)c1-c1ccc2nc(NC(=O)c3ccnc(F)c3)cn2n1` [Compound 258, N-(6-(1-(2,2-dimethylpropyl)-4-(4-fluorophenyl)-1H-imidazol-5-yl)imidazo[1,2-b]pyridazin-2-yl)-2-fluoroisonicotinamide], which IC50 [1] is on record?
Its IC50 is 0.393 nM.

What about the IC50 [2] of the same compound?
Its IC50 is 6.56 nM.

For `O=C(Nc1cn2nc(-c3c(-c4ccc(F)cc4)nc4ccccn34)ccc2n1)c1cc[nH]n1` [Compound 177, N-(6-(2-(4-fluorophenyl)imidazo[1,2-a]pyridin-3-yl)imidazo[1,2-b]pyridazin-2-yl)-1H-pyrazole-3-carboxamide], which IC50 [1] is on record?
The IC50 was 6.8 nM.

What about the IC50 [2] of the same compound?
Its IC50 is 24.2 nM.

How did the IC50 [1] turn out when `CC(C)NC(=O)N1CCn2c(nc(-c3ccc(F)cc3)c2-c2ccc3nc(NC(=O)c4ccnc(F)c4)cn3n2)C1` [Compound 482, 3-(2-(2-Fluoroisonicotinamido)imidazo[1,2-b]pyridazin-6-yl)-2-(4-fluorophenyl)-N-isopropyl-5,6-dihydroimidazo[1,2-a]pyrazine-7(8H)-carboxamide] was run?
The IC50 was 1.1 nM.

What about the IC50 [2] of the same compound?
The IC50 was 11.9 nM.

Which IC50 [1] does the source give for `O=C(Nc1cn2nc(-c3c(-c4ccc(F)cc4)ncn3C3CC(F)(F)C3)ccc2n1)c1ccnc(F)c1` [Compound 262, N-(6-(1-(3,3-difluorocyclobutyl)-4-(4-fluorophenyl)-1H-imidazol-5-yl)imidazo[1,2-b]pyridazin-2-yl)-2-fluoroisonicotinamide] here?
The IC50 was 0.331 nM.

And the IC50 [2]?
The IC50 was 3.48 nM.

Which results are given for `Cn1ccc(C(=O)Nc2cn3nc(-c4c(-c5ccc(F)cc5)nc5ccccn45)ccc3n2)n1` [Compound 181, N-(6-(2-(4-fluorophenyl)imidazo[1,2-a]pyridin-3-yl)imidazo[1,2-b]pyridazin-2-yl)-1-methyl-1H-pyrazole-3-carboxamide]?
IC50 [1]: 4.01 nM; IC50 [2]: 10.8 nM

For `O=C(Nc1cn2nc(-c3c(-c4ccc(F)cc4)nc(C4CC4)n3C3CCN(Cc4ccon4)CC3)ccc2n1)c1ccnc(F)c1` [Compound 128, N-(6-(2-cyclopropyl-4-(4-fluorophenyl)-1-(1-(isoxazol-3-ylmethyl)piperidin-4-yl)-1H-imidazol-5-yl)imidazo[1,2-b]pyridazin-2-yl)-2-fluoroisonicotinamide], which IC50 [1] is on record?
Its IC50 is 0.301 nM.

And the IC50 [2]?
The IC50 was 6.41 nM.

How did the IC50 [1] turn out when `Cc1nc(-c2ccc(F)c(F)c2)c(-c2ccc3nc(NC(=O)c4ccnc(F)c4)cn3n2)n1CC(F)F` [Compound 291, N-(6-(1-(2,2-difluoroethyl)-4-(3,4-difluorophenyl)-2-methyl-1H-imidazol-5-yl)imidazo[1,2-b]pyridazin-2-yl)-2-fluoroiso-nicotinamide] was run?
The IC50 was 0.388 nM.

And the IC50 [2]?
The IC50 was 2.64 nM.

Which results are given for `O=C(Nc1cn2nc(-c3c(-c4ccc(F)cc4)ncn3C3CCN(Cc4cc[nH]n4)CC3)ccc2n1)c1ccnc(F)c1` [Compound 20, N-(6-(1-(1-((1H-pyrazol-3-yl)methyl)piperidin-4-yl)-4-(4-fluorophenyl)-1H-imidazol-5-yl)imidazo[1,2-b]pyridazin-2-yl)-2-fluoroisonicotinamide]?
IC50 [1]: 0.28 nM; IC50 [2]: 1.78 nM

Which results are given for `Cc1nc(-c2ccc(F)cc2)c(-c2ccc3nc(NC(=O)c4ccc[nH]4)cn3n2)n1C` [Compound 358, N-(6-(4-(4-fluorophenyl)-1,2-dimethyl-1H-imidazol-5-yl)imidazo[1,2-b]pyridazin-2-yl)-1H-pyrrole-2-carbox-amide]?
IC50 [1]: 0.534 nM; IC50 [2]: 3.92 nM

Which results are given for `CC(C)(C)C(=O)N1CCn2c(nc(-c3ccc(F)cc3)c2-c2ccc3nc(NC(=O)c4ccnc(F)c4)cn3n2)C1` [Compound 464, 2-Fluoro-N-(6-(2-(4-fluorophenyl)-7-pivaloyl-5,6,7,8-tetrahydroimidazo[1,2-a]pyrazin-3-yl)imidazo[1,2-b]pyridazin-2-yl)isonicotinamide]?
IC50 [1]: 0.1 nM; IC50 [2]: 2.3 nM

For `Cc1nc(-c2ccc(F)cc2)c(-c2ccc3nc(NC(=O)c4cccnn4)cn3n2)n1C` [Compound 386, N-(6-(4-(4-fluorophenyl)-1,2-dimethyl-1H-imidazol-5-yl)imidazo[1,2-b]pyridazin-2-yl)pyridazine-3-carboxamide], which IC50 [1] is on record?
Its IC50 is 10.5 nM.

And the IC50 [2]?
Its IC50 is 55.1 nM.

Which results are given for `O=C(Nc1cn2nc(-c3c(-c4ccc(F)cc4)nc4ccccn34)ccc2n1)c1ccc(-c2cc[nH]n2)cc1` [Compound 170, N-(6-(2-(4-fluorophenyl)imidazo[1,2-a]pyridin-3-yl)imidazo[1,2-b]pyridazin-2-yl)-4-(1H-pyrazol-3-yl) benzamide]?
IC50 [1]: 0.743 nM; IC50 [2]: 8.43 nM

How did the IC50 [1] turn out when `O=C(Nc1cn2nc(-c3c(-c4ccc(F)cc4)nc4ccccn34)ccc2n1)c1cnc2ccccc2n1` [Compound 175, N-(6-(2-(4-fluorophenyl)imidazo[1,2-a]pyridin-3-yl)imidazo[1,2-b]pyridazin-2-yl)-2-quinoxalinecarboxamide] was run?
The IC50 was 3.93 nM.

And the IC50 [2]?
The IC50 was 19.3 nM.

`Cc1nc(-c2ccc(F)cc2)c(-c2ccc3nc(NC(=O)c4cccc5cnccc45)cn3n2)n1C` [Compound 330, N-(6-(4-(4-fluorophenyl)-1,2-dimethyl-1H-imidazol-5-yl)imidazo[1,2-b]pyridazin-2-yl)-5-isoquinoline-carboxamide] was tested. Which IC50 [1] did it give?
Its IC50 is 0.373 nM.

What about the IC50 [2] of the same compound?
Its IC50 is 3.34 nM.

How did the IC50 [1] turn out when `Cc1nc(-c2cccnc2)sc1C(=O)Nc1cn2nc(-c3c(-c4ccc(F)cc4)ncn3C3CCN(CC(N)=O)CC3)ccc2n1` [Compound 100, N-(6-(1-(1-(2-amino-2-oxoethyl)piperidin-4-yl)-4-(4-fluorophenyl)-1H-imidazol-5-yl)imidazo[1,2-b]pyridazin-2-yl)-4-methyl-2-(pyridin-3-yl) thiazole-5-carboxamide] was run?
The IC50 was 0.091 nM.

And the IC50 [2]?
Its IC50 is 0.128 nM.

For `CC1(NC(=O)N2CCn3c(nc(-c4ccc(F)cc4)c3-c3ccc4nc(NC(=O)c5ccnc(F)c5)cn4n3)C2)CC1` [Compound 485, 3-(2-(2-Fluoroisonicotinamido)imidazo[1,2-b]pyridazin-6-yl)-2-(4-fluorophenyl)-N-(1-methylcyclopropyl)-5,6-dihydroimidazo[1,2-a]pyrazine-7(8H)-carboxamide], which IC50 [1] is on record?
The IC50 was 0.5 nM.

And the IC50 [2]?
The IC50 was 4.5 nM.

For `N#Cc1ccc(C(=O)N2CCC(n3cnc(-c4ccc(F)cc4)c3-c3ccc4nc(NC(=O)c5ccnc(F)c5)cn4n3)CC2)cc1` [Compound 52, N-(6-(1-(1-(4-cyanobenzoyl)piperidin-4-yl)-4-(4-fluorophenyl)-1H-imidazol-5-yl)imidazo[1,2-b]pyridazin-2-yl)-2-fluoroisonicotinamide], which IC50 [1] is on record?
Its IC50 is 0.347 nM.

And the IC50 [2]?
Its IC50 is 1.44 nM.

How did the IC50 [1] turn out when `CC(C)(C)c1cc(C(=O)Nc2cn3nc(-c4c(-c5ccc(F)cc5)nc5ccccn45)ccc3n2)ncn1` [Compound 202, 6-(tert-butyl)-N-(6-(2-(4-fluorophenyl)imidazo[1,2-a]pyridin-3-yl)imidazo[1,2-b]pyridazin-2-yl)pyrimidine-4-carboxamide] was run?
Its IC50 is 9.84 nM.

And the IC50 [2]?
The IC50 was 28.1 nM.

What does the source list for `O=C(Nc1cn2nc(-c3c(-c4ccc(F)cc4)ncn3C3CCN(C(=O)OCC4CC4)CC3)ccc2n1)c1ccnc(F)c1` [Compound 78, cyclopropylmethyl 4-(5-(2-(2-fluoroisonicotinamido)imidazo[1,2-b]pyridazin-6-yl)-4-(4-fluorophenyl)-1H-imidazol-1-yl)piperidine-1-carboxylate]?
IC50 [1]: 0.295 nM; IC50 [2]: 2.23 nM
